{"source": "paper PMC3651166", "about": "“Differential Cytotoxic Activity of a Novel Palladium-Based Compound on Prostate Cell Lines, Primary Prostate Epithelial Cells and Prostate Stem Cells” (PLoS ONE, 2013)", "assay_type_in_all_cases": "cell-based, human", "key": {"BPH primary cells": {"system": "BPH primary cells", "assay": "MTS assay, primary cultures from benign prostate hyperplasia", "from_the_text": "(§1) Primary prostate epithelial cells were isolated from human tissue samples. The samples were collected with ethical permission from York District Hospital (York, UK) and Castle Hill Hospital (Cottingham, UK). Benign prostatic hyperplasia (BPH) and prostate cancer samples were obtained from TURP (transurethral resection of the prostate), radical prostatectomy (laparoscopic and open) and cystectomy operations. All patients gave written consent for their tissue to be used for research and all patient samples were anonymised. Permission was approved by the Local Research Ethical Committees, associated with York District Hospital and Castle Hill Hospital. Permission was administered by the Yorkshire and Humber Research Ethics Committee.\n(§2) Prostate epithelial cells were cultured as previously described in stem cell media (SCM) consisting of keratinocyte serum-free media (KSFM) with bovine pituitary extract (BPE) and epidermal growth factor (EGF), glutamine, stem cell factor (SCF), granulocyte macrophage colony stimulating factor (GM-CSF), leukaemia inhibitory factor (LIF) and cholera toxin. Cells were grown with STO feeder cells (irradiated at 60 Gy) on collagen I-coated plates.\n(§3) This assay was performed for the initial screening of the effect of the Pd complex on the cell lines and the whole cell population of primary cultures. The CellTiter 96® Aqueous One Solution Cell Proliferation Assay kit (G3580, Promega, Madison, WI, USA) was used and the manufacturer’s instructions were followed. Briefly, after treating cells that were seeded at a density of 5,000 cells per well in a 96-well plate in triplicate for a desired period (24 h, 48 h, 72 h), 20 µL of reagent was added to each well. Following 2.5 h incubation at 37°C, the absorbance was read at 485 nm using a plate reader (PolarStar Optima, BMG Labtech, UK). Percent viability was calculated using the formula (% Viability = [(Sample Absorbance/Control Absorbance)]×100.\n(§4) MTS and ATP assays were performed in triplicate and data presented as the mean +/− standard deviation. IC50 values (Table 3 and Table 4) were calculated from graphs of transformed data following application of the nonlinear regression (curve fit) that represents the log(inhibitor) ‘v’ normalized response (GraphPad Prism software) (Supplementary Figures S1 and S2). For significance calculations, the Wilcoxon rank sum test was used (Sigmaplot). Flow cytometry analysis was carried out in triplicate and results are presented as an average with error bars indicating the standard error."}, "PCa Primary cells (Gl7)": {"system": "PCa Primary cells (Gl7)", "assay": "MTS assay, primary cultures from prostate carcinoma Gleason 6/7", "from_the_text": "as §1, §2, §3, §4"}, "[1]": {"system": "primary cultures from BPH and Gleason 6/7 cancers", "assay": "MTS assay, primary cultures BPH and Gleason 6/7 together", "from_the_text": "as §1, with “Committee. […]” for “Committee.”\nThis assay was performed for the initial screening of the effect of the Pd complex on the cell lines and the whole cell population of primary cultures. […] Following 2.5 h incubation at 37°C, the absorbance was read at 485 nm using a plate reader (PolarStar Optima, BMG Labtech, UK). Percent viability was calculated using the formula (% Viability = [(Sample Absorbance/Control Absorbance)]×100."}, "cleaved caspase-3 [2]": {"system": "cleaved caspase-3", "assay": "Western blotting for apoptosis, cell lines", "protocol": "(§5) Following drug treatment, cell lysates were harvested using Cytobuster Protein Extraction Reagent (71009, EMD Millipore, Darmstadt, Germany) with protease inhibitors (cOmplete, EDTA-free Protease Inhibitor Cocktail Tablets, Roche Applied Science, UK). 20 µg of protein extract were loaded on 12% SDS-PAGE gels and wet-transferred to a PVDF membrane. Antibodies used include: monoclonal anti-β-actin 1∶5000 (A5316, Sigma-Aldrich), anti-LC3B 1∶3000 (Ab51520, abcam), cleaved caspase-3 (Asp175) 1∶1000 (9661S, Cell Signaling Technology) and secondary antibodies were Rabbit anti-mouse-HRP 1∶10000 (P0260, Dako) and anti-rabbit IgG HRP-linked 1∶5000 (Cell Signaling Technology Inc. 7074S). Kaleidoscope protein marker was run on each gel (161-0324, Bio-Rad)."}, "cleaved caspase-3 [3]": {"system": "cleaved caspase-3", "assay": "Western blotting for apoptosis, primary cultures", "protocol": "as §5"}, "LC3-II [4]": {"system": "LC3-II", "assay": "Western blotting for autophagy, cell lines", "protocol": "as §5"}, "LC3-II [5]": {"system": "LC3-II", "assay": "Western blotting and immunofluorescence for autophagy, primary cells", "conditions": "all primary cells", "protocol": "γH2AX staining: Cells were seeded onto 8-well collagen I-coated chamber slides. […] After blocking of non-specific binding with 2% BSA in PBS with 1% goat serum for 1 hour at RT, primary antibody (anti-phospho-histone H2A.X (Ser139), clone JBW301, Millipore, Cat no. 05–636) at 1∶1000 dilution was added in 3% BSA in PBS at 4°C overnight followed by three washes in 0.5% BSA in PBS with 0.175% Tween 20. Following incubation with secondary antibody (Goat anti-mouse Alexa Fluor 568, Invitrogen, Cat no. A-11004) at 1∶1000 dilution for 45 min in 3% BSA in PBS and three more washes in the same washing buffer, the slides were mounted using Vectashield with DAPI (Vector Laboratories, Cat no. H-1200). LC3-B staining: Cells were treated as above then fixed with 4% paraformaldehyde, followed by an incubation in 0.3% Triton X-100. After blocking with 10% normal goat serum, cells were incubated in anti-LC3B 1∶200 (Ab51520, abcam) diluted in 0.1% Triton X-100 in PBS. Secondary antibody was Alexa Fluor 568 goat anti-rabbit IgG 1∶1000 (Invitrogen A11011)."}}, "note": "“Also recorded” adds a separate entry of the source. Where two headings read alike, the source gives them in different places.", "data": [{"substance": "[PdCl(terpy)](sac)⋅2 H2O [Pd complex]", "values": [{"measurement": "IC50", "setting": "BPH primary cells; BPH primary cells, sample 1608, 72 h, read-out: IC50", "result": 5.97, "unit": "µM"}, {"measurement": "IC50", "setting": "BPH primary cells; BPH primary cells, sample 3108, 72 h, read-out: IC50", "result": 7.33, "unit": "µM"}, {"measurement": "IC50", "setting": "BPH primary cells; BPH primary cells, sample 7611, 72 h, read-out: IC50", "result": 6.97, "unit": "µM"}, {"measurement": "IC50", "setting": "BPH primary cells; BPH primary cells, sample 8109, 72 h, read-out: IC50", "result": 14.4, "unit": "µM"}, {"measurement": "IC50", "setting": "BPH primary cells; average of BPH primary cells, 72 h, read-out: IC50 AVERAGE", "result": 8.67, "unit": "µM"}, {"measurement": "reduction of cell viability compared to etoposide", "setting": "BPH primary cells; benign samples, both at 25 µM, 72 h, median values", "result": "at least 5.6 fold"}, {"measurement": "IC50", "setting": "PCa Primary cells (Gl7); PCa primary cells (Gl7), sample 06211rb, 72 h, read-out: IC50", "result": 11.1, "unit": "µM"}, {"measurement": "IC50", "setting": "PCa Primary cells (Gl7); PCa primary cells (Gl7), sample 06411lb, 72 h, read-out: IC50", "result": 5.2, "unit": "µM"}, {"measurement": "IC50", "setting": "PCa Primary cells (Gl7); PCa primary cells (Gl7), sample 06411ra, 72 h, read-out: IC50", "result": 3.78, "unit": "µM"}, {"measurement": "IC50", "setting": "PCa Primary cells (Gl7); PCa primary cells (Gl7), sample 06611lb, 72 h, read-out: IC50", "result": 13.1, "unit": "µM"}, {"measurement": "IC50", "setting": "PCa Primary cells (Gl7); PCa primary cells (Gl7), sample 06711rb, 72 h, read-out: IC50", "result": 8.24, "unit": "µM"}, {"measurement": "IC50", "setting": "PCa Primary cells (Gl7); PCa primary cells (Gl7), sample 07011la, 72 h, read-out: IC50", "result": 5.36, "unit": "µM"}, {"measurement": "IC50", "setting": "PCa Primary cells (Gl7); PCa primary cells (Gl7), sample 07011lb, 72 h, read-out: IC50", "result": 6.03, "unit": "µM"}, {"measurement": "IC50", "setting": "PCa Primary cells (Gl7); PCa primary cells (Gl7), sample 07311ra, 72 h, read-out: IC50", "result": 5.37, "unit": "µM"}, {"measurement": "IC50", "setting": "PCa Primary cells (Gl7); PCa primary cells (Gl7), sample 22412, 72 h, read-out: IC50", "result": 6.3, "unit": "µM"}, {"measurement": "IC50", "setting": "PCa Primary cells (Gl7); average of PCa primary cells (Gl7; Gleason 6/7), 72 h, read-out: IC50 AVERAGE", "result": 7.16, "unit": "µM"}, {"measurement": "reduction of cell viability compared to etoposide", "setting": "PCa Primary cells (Gl7); malignant samples, both at 25 µM, 72 h, median values", "result": 10.66, "unit": "fold"}, {"measurement": "concentrations having a significant anti-growth effect on all samples", "setting": "[1]; BPH and Gleason 6/7 samples, 72 h", "result": "higher than 6.25"}, {"measurement": "lowest concentration inducing a significant anti-growth effect", "setting": "[1]; primary cultures, previous experiments (MTS)", "result": 6.25, "unit": "µM"}, {"measurement": "cleaved caspase-3 (apoptosis)", "setting": "cleaved caspase-3 [2]; BPH-1, PNT2-C2 and P4E6 cells", "result": "clear induction of cleaved caspase-3"}, {"measurement": "cleaved caspase-3 (apoptosis)", "setting": "cleaved caspase-3 [2]; LNCaP cells", "result": "only observed after treatment with 25 µM Pd complex"}, {"measurement": "cleaved caspase-3 (apoptosis)", "setting": "cleaved caspase-3 [2]; PC3 cells", "result": "no evidence of cleaved caspase-3"}, {"measurement": "cleaved caspase-3 (apoptosis)", "setting": "cleaved caspase-3 [3]; BPH primary sample", "result": "only a positive result with the BPH sample at a low dose"}, {"measurement": "cleaved caspase-3 (apoptosis)", "setting": "cleaved caspase-3 [3]; primary cancer samples", "result": "no evidence of cleaved caspase-3; also recorded: No apoptosis was induced"}, {"measurement": "LC3-II expression (autophagy)", "setting": "LC3-II [4]; BPH-1, PNT2-C2 and P4E6 cells", "result": "clear increase in the expression of LC3-II"}, {"measurement": "levels of LC3-I and LC3-II", "setting": "LC3-II [4]; LNCaP and PC3 cells, any treatment", "result": "did not change dramatically or in a dose-dependent fashion"}, {"measurement": "LC3-II (autophagy)", "setting": "LC3-II [5]", "result": "clear increase in LC3-II"}]}]}
